Experimental data as given in ChEMBL document CHEMBL1201862, “PubChem BioAssay data set” (2004).
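Step 1: Grow cells in 96-well plates. Step 2: Expose to compound for 48 hours at 5 concentrations. Step 3: Interpolate endpoints linearly; if unreached, use highest concentration. Abbreviation: GI50, concentration required for 50% inhibition of growth.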 Calls of active or inactive are those of the source. Cut-off read from the data, not from the text of the source: active = GI50 up to about 1.1 µM and inactive = higher.

Tests used:
Test in all cases: NCI anticancer screen, dose series, 48 h
HCT-15 = system: HCT-15
HOP-62 = system: HOP-62
SNB-19 = system: SNB-19
OVCAR-5 = system: OVCAR-5
MDA-N = system: MDA-N
U-251 = system: U-251
CAKI-1 = system: CAKI-1
SF-539 = system: SF-539
T47D = system: T47D
SW-620 = system: SW-620
PC-3 = system: PC-3
TK-10 = system: TK-10
SK-MEL-28 = system: SK-MEL-28
A498 = system: A498
SK-MEL-5 = system: SK-MEL-5
MCF7 = system: MCF7
MDA-MB-435 = system: MDA-MB-435
SF-268 = system: SF-268
HT-29 = system: HT-29
SR = system: SR

In the case of `O=C1c2c(O)cccc2C(C2OC(CO)C(O)C(O)C2O)c2cc(CO)cc(O)c21` (stereo not drawn), the GI50 (HCT-15) is reported as greater than 100 µM, the GI50 (HOP-62) is reported as > 100 µM (inactive) and the GI50 (SNB-19) is reported as > 100 µM (inactive). The GI50 (OVCAR-5) was > 100 µM (inactive), the GI50 (MDA-N) was > 100 µM (inactive) and the GI50 (U-251) was > 100 µM (inactive). The GI50 (CAKI-1) was > 100 µM (inactive), the GI50 (SF-539) was > 100 µM (inactive) and the GI50 (T47D) was > 100 µM (inactive). For the same compound, the GI50 (SW-620) was > 100 µM (inactive), the GI50 (PC-3) was > 100 µM (inactive) and the GI50 (TK-10) was > 100 µM (inactive). The GI50 (SK-MEL-28) was > 100 µM (inactive), the GI50 (A498) was > 100 µM (inactive) and the GI50 (SK-MEL-5) was > 100 µM (inactive). The GI50 (MCF7) was > 100 µM (inactive), the GI50 (MDA-MB-435) was > 100 µM (inactive) and the GI50 (SF-268) was > 100 µM (inactive). For the same compound, the GI50 (HT-29) was > 100 µM (inactive).
In the case of `Cc1n(CC(C)C)c2c([n+]1C)C(=O)c1ccccc1C2=O`, the GI50 (HCT-15) is reported as 0.478 µM, the GI50 (HOP-62) is reported as 0.131 µM (active) and the GI50 (SNB-19) is reported as 0.0716 µM (active). For the same compound, the GI50 (OVCAR-5) was 0.244 µM (active), the GI50 (MDA-N) was 0.166 µM (active) and the GI50 (U-251) was 0.0588 µM (active). For the same compound, the GI50 (CAKI-1) was 1.17 µM (inactive), the GI50 (SF-539) was 0.0479 µM (active) and the GI50 (T47D) was 0.0371 µM (active). The GI50 (SW-620) was 0.0432 µM (active), the GI50 (PC-3) was 0.0348 µM (active) and the GI50 (TK-10) was 0.411 µM (active). For the same compound, the GI50 (SK-MEL-28) was 1.06 µM (active), the GI50 (SR) was 0.301 µM (active) and the GI50 (A498) was 0.32 µM (active). For the same compound, the GI50 (SK-MEL-5) was 0.0473 µM (active), the GI50 (MDA-MB-435) was 0.143 µM (active) and the GI50 (SF-268) was < 0.0169 µM (active). For the same compound, the GI50 (HT-29) was 0.0241 µM (active).
With `N#CCCN(CCC#N)c1ccc(/C=C2\N=C(c3ccccc3)N(c3ccccc3)C2=O)cc1` the GI50 (HCT-15) was 6.25 µM, the GI50 (HOP-62) was > 100 µM (inactive) and the GI50 (SNB-19) was > 100 µM (inactive). The GI50 (OVCAR-5) was > 100 µM (inactive), the GI50 (MDA-N) was > 100 µM (inactive) and the GI50 (U-251) was > 100 µM (inactive). For the same compound, the GI50 (SF-539) was 6.11 µM (inactive), the GI50 (T47D) was > 100 µM (inactive) and the GI50 (SW-620) was > 100 µM (inactive). For the same compound, the GI50 (PC-3) was 17 µM (inactive), the GI50 (TK-10) was > 100 µM (inactive) and the GI50 (SK-MEL-28) was > 100 µM (inactive). For the same compound, the GI50 (A498) was > 100 µM (inactive), the GI50 (SK-MEL-5) was 4.38 µM (inactive) and the GI50 (MCF7) was > 100 µM (inactive). For the same compound, the GI50 (MDA-MB-435) was > 100 µM (inactive) and the GI50 (HT-29) was 8.97 µM (inactive).
With `CCCCOCCOCCOC1=C(Cl)C(=O)c2c(O)ccc(O)c2C1=O` the GI50 (HCT-15) was 0.388 µM, the GI50 (HOP-62) was 1.19 µM (inactive) and the GI50 (SNB-19) was 1.77 µM (inactive). For the same compound, the GI50 (OVCAR-5) was 2.52 µM (inactive), the GI50 (MDA-N) was 0.728 µM (active) and the GI50 (U-251) was 1.67 µM (inactive). For the same compound, the GI50 (CAKI-1) was 0.209 µM (active), the GI50 (SF-539) was 1.51 µM (inactive) and the GI50 (T47D) was 0.488 µM (active). For the same compound, the GI50 (SW-620) was 0.283 µM (active), the GI50 (PC-3) was 1.62 µM (inactive) and the GI50 (TK-10) was 1.32 µM (inactive). For the same compound, the GI50 (SK-MEL-28) was 0.357 µM (active), the GI50 (SR) was < 0.01 µM (active) and the GI50 (A498) was 2.36 µM (inactive). The GI50 (SK-MEL-5) was 0.565 µM (active), the GI50 (MCF7) was 0.218 µM (active) and the GI50 (SF-268) was 0.759 µM (active). For the same compound, the GI50 (HT-29) was 0.484 µM (active).
For `CCOC(=O)CSc1nc(-c2ccc(OC)cc2)c(C#N)c(=O)[nH]1`, the GI50 (HCT-15) was greater than 100 µM, the GI50 (HOP-62) was > 100 µM (inactive) and the GI50 (SNB-19) was > 100 µM (inactive). The GI50 (OVCAR-5) was > 100 µM (inactive), the GI50 (U-251) was > 100 µM (inactive) and the GI50 (CAKI-1) was > 100 µM (inactive). The GI50 (SF-539) was > 100 µM (inactive), the GI50 (T47D) was > 100 µM (inactive) and the GI50 (SW-620) was > 100 µM (inactive). For the same compound, the GI50 (PC-3) was > 100 µM (inactive), the GI50 (TK-10) was > 100 µM (inactive) and the GI50 (SK-MEL-28) was > 100 µM (inactive). For the same compound, the GI50 (SR) was 84.9 µM (inactive), the GI50 (A498) was > 100 µM (inactive) and the GI50 (SK-MEL-5) was > 100 µM (inactive). The GI50 (MCF7) was > 100 µM (inactive), the GI50 (MDA-MB-435) was > 100 µM (inactive) and the GI50 (SF-268) was > 100 µM (inactive). For the same compound, the GI50 (HT-29) was > 100 µM (inactive).
With `CC(C)(C)OC(=O)NCC(=O)N1CCCN(C(=O)CNC(=O)OC(C)(C)C)CC1` the GI50 (HCT-15) was greater than 100 µM, the GI50 (HOP-62) was > 100 µM (inactive) and the GI50 (SNB-19) was > 100 µM (inactive). The GI50 (OVCAR-5) was > 100 µM (inactive), the GI50 (MDA-N) was > 100 µM (inactive) and the GI50 (U-251) was > 100 µM (inactive). The GI50 (CAKI-1) was > 100 µM (inactive), the GI50 (T47D) was > 100 µM (inactive) and the GI50 (SW-620) was > 100 µM (inactive). The GI50 (PC-3) was > 100 µM (inactive), the GI50 (TK-10) was > 100 µM (inactive) and the GI50 (SK-MEL-28) was > 100 µM (inactive). For the same compound, the GI50 (A498) was > 100 µM (inactive), the GI50 (SK-MEL-5) was > 100 µM (inactive) and the GI50 (MCF7) was > 100 µM (inactive). The GI50 (MDA-MB-435) was > 100 µM (inactive), the GI50 (SF-268) was > 100 µM (inactive) and the GI50 (HT-29) was > 100 µM (inactive).
In the case of `COc1ccc(O)c(/C(C)=N/NC(=S)N(C)C)c1`, the GI50 (HCT-15) is reported as 5.12 µM, the GI50 (HOP-62) is reported as 21.9 µM (inactive) and the GI50 (SNB-19) is reported as 40.5 µM (inactive). For the same compound, the GI50 (OVCAR-5) was > 61.9 µM (inactive), the GI50 (MDA-N) was > 73.3 µM (inactive) and the GI50 (U-251) was > 36.6 µM (inactive). For the same compound, the GI50 (CAKI-1) was 16.7 µM (inactive), the GI50 (SF-539) was 64 µM (inactive) and the GI50 (T47D) was 40.9 µM (inactive). For the same compound, the GI50 (SW-620) was 28.6 µM (inactive), the GI50 (PC-3) was > 36.4 µM (inactive) and the GI50 (SK-MEL-28) was 35.7 µM (inactive). For the same compound, the GI50 (SR) was 25.8 µM (inactive), the GI50 (A498) was > 100 µM (inactive) and the GI50 (SK-MEL-5) was 9.18 µM (inactive). For the same compound, the GI50 (MDA-MB-435) was 57.7 µM (inactive), the GI50 (SF-268) was 20.9 µM (inactive) and the GI50 (HT-29) was 0.0306 µM (active).
For `COC(=O)Nc1nc2cc(NC(=O)c3cccs3)ccc2[nH]1`, the GI50 (HCT-15) was 23.9 µM, the GI50 (HOP-62) was 84.9 µM (inactive) and the GI50 (SNB-19) was 32.1 µM (inactive). For the same compound, the GI50 (OVCAR-5) was 61.8 µM (inactive), the GI50 (MDA-N) was 10.4 µM (inactive) and the GI50 (U-251) was 34.2 µM (inactive). The GI50 (CAKI-1) was 44.9 µM (inactive), the GI50 (SF-539) was 21.9 µM (inactive) and the GI50 (T47D) was 31.3 µM (inactive). For the same compound, the GI50 (SW-620) was 27.5 µM (inactive), the GI50 (PC-3) was 30.2 µM (inactive) and the GI50 (TK-10) was 36.6 µM (inactive). For the same compound, the GI50 (SK-MEL-28) was 38.5 µM (inactive), the GI50 (A498) was 11.2 µM (inactive) and the GI50 (SK-MEL-5) was 15.6 µM (inactive). The GI50 (MCF7) was 32.1 µM (inactive), the GI50 (MDA-MB-435) was 8.57 µM (inactive) and the GI50 (SF-268) was 75.3 µM (inactive). The GI50 (HT-29) was 33 µM (inactive).
